From US8758816B2, “Compositions comprising azelastine and methods of use thereof” (priority 2004, dated 2014)
Where a name gives a salt, the structure may show the parent alone.

System: patients with seasonal allergic rhinitis (SAR)
Assay: MP 428 study: individual symptom severity scores (runny nose, itchy nose, sneezing, congestion; 0-3 scale)
Assay type: in vivo, human
Details: Intent-to-Treat Population
Procedure: A two-week, randomized, double-blind study, which evaluated the effects of the co-administration of ASTELIN® (azelastine hydrochloride (HCl)) and FLONASE® (fluticasone propionate) compared to either product alone in patients with seasonal allergic rhinitis (SAR) was conducted during the 2006 Texas mountain cedar season. After a 5-day placebo lead-in period, 151 patients with moderate-to-severe allergic rhinitis symptoms were randomized to either: (1) (49 total patients) ASTELIN® (azelastine hydrochloride (HCl)) plus placebo saline nasal spray 2 sprays per nostril, 15 minutes apart, twice daily (AM & PM); (2) (50 total patients) FLONASE® (fluticasone propionate) plus placebo saline nasal spray, 2 sprays per nostril, 15 minutes apart, once daily (AM) and two sessions of placebo saline nasal spray, 2 sprays per nostril, 15 minutes apart (PM); or (3) (52 total patients) the co-administration of ASTELIN® (azelastine hydrochloride (HCl)) 2 sprays per nostril plus FLONASE® (fluticasone propionate) 2 sprays per nostril (AM), 15 minutes apart, and ASTELIN® (azelastine hydrochloride (HCl)) 2 sprays per nostril plus placebo saline nasal spray, 15 minutes apart, (PM) for a 2-week double-blind treatment period.
The primary efficacy variable was the change from baseline in the Total Nasal Symptom Score (TNSS), which comprised sneezing, itchy nose, runny nose, and nasal congestion (individual symptoms scores were assigned a value between 0 and 3, where 0=no symptoms and 3=severe symptoms). This study was not statistically designed to assess the differences between ASTELIN® and FLONASE®.
The results of the clinical trial are summarized and presented in Appendix A hereinbelow and in FIGS. 1-6. […] FIGS. 2-5 show the mean improvement in severity score (0-3 scale) from baseline for the symptoms of runny nose, itchy nose, sneezing and congestion, respectively.

## CN1CCCC(n2nc(Cc3ccc(Cl)cc3)c3ccccc3c2=O)CC1 (racemic) [Azelastine, (±)-1-(2H)-phthalazinone, 4-[(4-chlorophenyl)methyl]-2-(hexahydro-1-methyl-1H-azepin-4-yl)-, mono-hydrochloride]
Day 12
  Percent Change from Baseline in AM and PM Combined Nasal Symptom Score: Congestion, LS Mean: −21.71%
  Percent Change from Baseline in AM and PM Combined Nasal Symptom Score: Congestion, Mean: −22.63%
  Percent Change from Baseline in AM and PM Combined Nasal Symptom Score: Congestion, Median: −16.67%
  Percent Change from Baseline in AM and PM Combined Nasal Symptom Score: Itchy Nose, LS Mean: −29.11%
  Percent Change from Baseline in AM and PM Combined Nasal Symptom Score: Itchy Nose, Mean: −28.74%
  Percent Change from Baseline in AM and PM Combined Nasal Symptom Score: Itchy Nose, Median: −16.67%
  Percent Change from Baseline in AM and PM Combined Nasal Symptom Score: Runny Nose, LS Mean: −22.75%
  Percent Change from Baseline in AM and PM Combined Nasal Symptom Score: Runny Nose, Mean: −23.43%
  Percent Change from Baseline in AM and PM Combined Nasal Symptom Score: Runny Nose, Median: −8.40%
  Percent Change from Baseline in AM and PM Combined Nasal Symptom Score: Sneezing, LS Mean: −34.92%
  Percent Change from Baseline in AM and PM Combined Nasal Symptom Score: Sneezing, Mean: −34.06%
  Percent Change from Baseline in AM and PM Combined Nasal Symptom Score: Sneezing, Median: −33.33%
Day 13
  Change from Baseline in AM and PM Combined Nasal Symptom Score: Congestion, LS Mean: −1.25
  Change from Baseline in AM and PM Combined Nasal Symptom Score: Congestion, Mean: −1.29
  Change from Baseline in AM and PM Combined Nasal Symptom Score: Congestion, Median: −1.00
  Change from Baseline in AM and PM Combined Nasal Symptom Score: Itchy Nose, LS Mean: −1.44
  Change from Baseline in AM and PM Combined Nasal Symptom Score: Itchy Nose, Mean: −1.43
  Change from Baseline in AM and PM Combined Nasal Symptom Score: Itchy Nose, Median: −1.15
  Change from Baseline in AM and PM Combined Nasal Symptom Score: Runny Nose, LS Mean: −1.36
  Change from Baseline in AM and PM Combined Nasal Symptom Score: Runny Nose, Mean: −1.38
  Change from Baseline in AM and PM Combined Nasal Symptom Score: Runny Nose, Median: −1.07
  Change from Baseline in AM and PM Combined Nasal Symptom Score: Sneezing, LS Mean: −1.60
  Change from Baseline in AM and PM Combined Nasal Symptom Score: Sneezing, Mean: −1.60
  Change from Baseline in AM and PM Combined Nasal Symptom Score: Sneezing, Median: −1.75
  Percent Change from Baseline in AM and PM Combined Nasal Symptom Score: Congestion, LS Mean: −22.44%
  Percent Change from Baseline in AM and PM Combined Nasal Symptom Score: Congestion, Mean: −23.01%
  Percent Change from Baseline in AM and PM Combined Nasal Symptom Score: Congestion, Median: −18.64%
  Percent Change from Baseline in AM and PM Combined Nasal Symptom Score: Itchy Nose, LS Mean: −32.25%
  Percent Change from Baseline in AM and PM Combined Nasal Symptom Score: Itchy Nose, Mean: −31.63%
  Percent Change from Baseline in AM and PM Combined Nasal Symptom Score: Itchy Nose, Median: −22.33%
  Percent Change from Baseline in AM and PM Combined Nasal Symptom Score: Runny Nose, LS Mean: −27.36%
  Percent Change from Baseline in AM and PM Combined Nasal Symptom Score: Runny Nose, Mean: −27.57%
  Percent Change from Baseline in AM and PM Combined Nasal Symptom Score: Runny Nose, Median: −24.05%
  Percent Change from Baseline in AM and PM Combined Nasal Symptom Score: Sneezing, LS Mean: −35.90%
  Percent Change from Baseline in AM and PM Combined Nasal Symptom Score: Sneezing, Mean: −35.28%
  Percent Change from Baseline in AM and PM Combined Nasal Symptom Score: Sneezing, Median: −30.43%
Day 14
  Change from Baseline in AM and PM Combined Nasal Symptom Score: Congestion, LS Mean: −1.33
  Change from Baseline in AM and PM Combined Nasal Symptom Score: Congestion, Mean: −1.39
  Change from Baseline in AM and PM Combined Nasal Symptom Score: Congestion, Median: −1.05
  Change from Baseline in AM and PM Combined Nasal Symptom Score: Itchy Nose, LS Mean: −1.39
  Change from Baseline in AM and PM Combined Nasal Symptom Score: Itchy Nose, Mean: −1.39
  Change from Baseline in AM and PM Combined Nasal Symptom Score: Itchy Nose, Median: −1.15
  Change from Baseline in AM and PM Combined Nasal Symptom Score: Runny Nose, LS Mean: −1.32
  Change from Baseline in AM and PM Combined Nasal Symptom Score: Runny Nose, Mean: −1.34
  Change from Baseline in AM and PM Combined Nasal Symptom Score: Runny Nose, Median: −1.43
  Change from Baseline in AM and PM Combined Nasal Symptom Score: Sneezing, LS Mean: −1.51
  Change from Baseline in AM and PM Combined Nasal Symptom Score: Sneezing, Mean: −1.50
  Change from Baseline in AM and PM Combined Nasal Symptom Score: Sneezing, Median: −1.35
  Percent Change from Baseline in AM and PM Combined Nasal Symptom Score: Congestion, LS Mean: −23.87%
  Percent Change from Baseline in AM and PM Combined Nasal Symptom Score: Congestion, Mean: −24.78%
  Percent Change from Baseline in AM and PM Combined Nasal Symptom Score: Congestion, Median: −20.79%
  Percent Change from Baseline in AM and PM Combined Nasal Symptom Score: Itchy Nose, LS Mean: −31.60%
  Percent Change from Baseline in AM and PM Combined Nasal Symptom Score: Itchy Nose, Mean: −31.14%
  Percent Change from Baseline in AM and PM Combined Nasal Symptom Score: Itchy Nose, Median: −25.00%
  Percent Change from Baseline in AM and PM Combined Nasal Symptom Score: Runny Nose, LS Mean: −25.17%
  Percent Change from Baseline in AM and PM Combined Nasal Symptom Score: Runny Nose, Mean: −25.22%
  Percent Change from Baseline in AM and PM Combined Nasal Symptom Score: Runny Nose, Median: −29.41%
  Percent Change from Baseline in AM and PM Combined Nasal Symptom Score: Sneezing, LS Mean: −30.86%
  Percent Change from Baseline in AM and PM Combined Nasal Symptom Score: Sneezing, Mean: −29.95%
  Percent Change from Baseline in AM and PM Combined Nasal Symptom Score: Sneezing, Median: −27.93%
Overall (Day 2 to Day 14)
  Change from Baseline in AM and PM Combined Nasal Symptom Score: Congestion, LS Mean: −1.08
  Change from Baseline in AM and PM Combined Nasal Symptom Score: Congestion, Mean: −1.12
  Change from Baseline in AM and PM Combined Nasal Symptom Score: Congestion, Median: −0.77
  Change from Baseline in AM and PM Combined Nasal Symptom Score: Itchy Nose, LS Mean: −1.14
  Change from Baseline in AM and PM Combined Nasal Symptom Score: Itchy Nose, Mean: −1.16
  Change from Baseline in AM and PM Combined Nasal Symptom Score: Itchy Nose, Median: −0.98
  Change from Baseline in AM and PM Combined Nasal Symptom Score: Runny Nose, LS Mean: −1.06
  Change from Baseline in AM and PM Combined Nasal Symptom Score: Runny Nose, Mean: −1.08
  Change from Baseline in AM and PM Combined Nasal Symptom Score: Runny Nose, Median: −0.67
  Change from Baseline in AM and PM Combined Nasal Symptom Score: Sneezing, LS Mean: −1.48
  Change from Baseline in AM and PM Combined Nasal Symptom Score: Sneezing, Mean: −1.49
  Change from Baseline in AM and PM Combined Nasal Symptom Score: Sneezing, Median: −1.31
  Percent Change from Baseline in AM and PM Combined Nasal Symptom Score: Congestion, LS Mean: −19.23%
  Percent Change from Baseline in AM and PM Combined Nasal Symptom Score: Congestion, Mean: −19.82%
  Percent Change from Baseline in AM and PM Combined Nasal Symptom Score: Congestion, Median: −12.82%
  Percent Change from Baseline in AM and PM Combined Nasal Symptom Score: Itchy Nose, LS Mean: −25.36%
  Percent Change from Baseline in AM and PM Combined Nasal Symptom Score: Itchy Nose, Mean: −25.53%
  Percent Change from Baseline in AM and PM Combined Nasal Symptom Score: Itchy Nose, Median: −19.66%
  Percent Change from Baseline in AM and PM Combined Nasal Symptom Score: Runny Nose, LS Mean: −20.47%
  Percent Change from Baseline in AM and PM Combined Nasal Symptom Score: Runny Nose, Mean: −21.06%
  Percent Change from Baseline in AM and PM Combined Nasal Symptom Score: Runny Nose, Median: −15.44%
  Percent Change from Baseline in AM and PM Combined Nasal Symptom Score: Sneezing, LS Mean: −34.20%
  Percent Change from Baseline in AM and PM Combined Nasal Symptom Score: Sneezing, Mean: −33.98%
  Percent Change from Baseline in AM and PM Combined Nasal Symptom Score: Sneezing, Median: −33.20%
